# In US20230124095A1 (AMORPHICAL LTD., priority 2020, published 2023):
# Tested on: Cathepsin B
# Experiment: Cathepsin B activity in lysate of LNCaP clone FGC cells
# Type: cell-based, human
# Details: 4 passages in supplemented medium
compound,measurement,value
"[Ca+2].[Cl-].[Cl-] [CaCl2, calcium chloride]",reduction of Cathepsin B activity compared to untreated control,16%
